For data set [1], the system named is iNOS protein levels in RAW264.7 macrophages. As to the kind of experiment: Western blot analysis of iNOS expression in LPS-stimulated macrophages. It counts as cell-based, murine. The note with it: for iNOS expression level: normalized against LPS condition. The method, then:
To investigate the underlying mechanism of action of the most promising brominated chalcones (1 and 2), their effects on iNOS protein levels were assessed in LPS-stimulated macrophages at different time points (4, 6, and 24 h). The non-treated (NT) condition, consisting of macrophages stimulated with LPS but receiving no chalcone treatment, was used as the reference for maximal iNOS induction under inflammatory conditions and served as a positive control. The selected concentrations (7.5 μM and 15 μM) were selected based on chalcones 1 and 2 cytocompatibility (Figure 3) and efficacy in reducing NO production (Figure 4). Since NO production is a direct consequence of iNOS enzymatic activity, where the enzyme catalyzes the conversion of L-arginine to NO following inflammatory stimulation such as LPS, this provides a functional readout of iNOS expression and activity.
Here, we focused on validating iNOS expression at the protein level by western blot (Figure 6). While gene-level expression was not assessed, it is well established that LPS stimulation induces both iNOS transcription and translation in RAW 264.7 macrophages. Moreover, changes observed at the protein level are often closely associated with upstream transcriptional or translational modulation. Therefore, quantifying iNOS protein levels provides a biologically relevant measure of the chalcones’ inhibitory effects on this key inflammatory mediator.
The expression of the iNOS enzyme was analyzed by western blot. RAW264.7 macrophages were seeded at a density of 1 × 10^6 cells/well in a 6-well plate and incubated for 24 h at 37 °C in a humidified atmosphere containing 5% CO2. After incubation, cells were treated with 7.5 µM or 15 µM of the most promising chalcones (1 and 2) for 30 min, followed by the addition of LPS to have a final concentration of 100 ng/mL. Cells were then incubated for 4, 6, or 24 h. At each time point, cells were washed with PBS and lysed in RIPA buffer. The lysates were collected in Eppendorf tubes and kept on ice, with intermittent vortexing to ensure thorough lysis. Samples were centrifuged at 18,000× g for 16 min at 4 °C, and the supernatant was collected. Total protein concentration was determined using the Pierce™ BCA Protein Assay Kit (Thermo Scientific, 23225, Waltham, MA, USA), following the manufacturer’s instructions. Equal amounts of protein (25 µg) were loaded onto Bolt™ 8% Bis-Tris Mini Protein Gels (Invitrogen™, NW00087BOX, Waltham, MA, USA) and separated via electrophoresis. Proteins were then transferred onto nitrocellulose membranes (Invitrogen™, IB24002) using the iBlot® 2 dry transfer system (Invitrogen™, Waltham, MA, USA). After transfer, membranes were sectioned to separate the iNOS bands from those of the housekeeping protein GAPDH. Membranes were blocked for 1 h at room temperature in TBS-T containing 5% BSA and subsequently incubated overnight at 4 °C with primary antibodies against iNOS (Cell Signaling Technology, 16713120S, Danvers, MA, USA) or GAPDH (Abcam, ab181602, Cambridge, UK), diluted in TBS-T with 1% BSA. On the following day, membranes were washed three times with TBS-T and incubated for 1 h at room temperature with an HRP-conjugated secondary antibody (Cell Signaling Technology, 7074S) diluted in TBS-T with 1% BSA. After three additional washes, signal detection was performed using Clarity™ Western ECL Substrate (Bio-Rad, 1705061, Hercules, CA, USA), and chemiluminescent signals were acquired using the Odyssey FC imaging system (LI-COR, Lincoln, NE, USA). Densitometric analysis of iNOS bands was performed using Image Studio™ Software (version 5.2, LI-COR, Lincoln, NE, USA), with values normalized to the corresponding GAPDH bands.
Figure 6 iNOS expression level after treatment of 4, 6, and 24 h with chalcones 1 and 2 in macrophage cell line. Results are expressed as volume arbitrary unit (A). […]
(In western blotting, separated proteins are transferred to a membrane and probed.)

Data set [2] relates to NO production in LPS-stimulated RAW 264.7 macrophages. As to the kind of experiment: NO production (Griess assay) in LPS-stimulated macrophages. It counts as cell-based, murine. The following applies: RAW 264.7, LPS 100 ng/mL; for IC50: Mus musculus, RAW264.7, 24 h, Griess. The method, then:
The anti-inflammatory potential of chalcones 1–7 was evaluated in macrophages cultured in the presence or absence (control) of LPS, as depicted in Figure 4. Under basal conditions (unstimulated, control), macrophages produce low levels of nitrites (≈12%). […] Each chalcone was tested at concentrations previously established as non-cytotoxic in macrophages, trying to ensure that observed changes in NO levels were not due to reduced cell viability.
The production of NO was evaluated by measuring nitrite accumulation in culture supernatants using the previously described Griess assay. Cells were seeded at a concentration of 5.0 × 10^4 cells/mL in a 96-well plate (200 μL/well) and allowed to stabilize overnight at 37 °C. Afterwards, the cells were treated with different concentrations of compound solutions and pre-incubated for 1 h at 37 °C. Subsequently, an LPS in PBS solution was added to each well, achieving a final concentration of 100 ng/mL, and the plate was left to incubate for 24 h. An amount of 150 μL of the cell culture supernatant was then transferred to a fresh 96-well plate, and an equal amount of Griess reagent [comprising a 1:1 mixture of 1% (w/v) sulphanilamide in 5% (v/v) phosphoric acid and 0.1% (w/v) naphthylethylenediaminedihydrochloride] was added. Following a 30 min incubation at room temperature in the dark, the absorbance was recorded at 550 nm using a Biotek Synergy HT plate reader (Biotek, CA, USA). The nitrite concentration in the supernatants was determined by comparing the absorbance of each sample to a sodium nitrite standard curve. The results, obtained from at least three independent experiments performed in duplicate, were expressed as a percentage of NO production by cells versus chemical concentration, relative to LPS condition (100%).
Figure 4 NO production by macrophages treated with LPS (100 ng/mL) or not (control) in the presence of chalcones 1–7. Results are expressed as a percentage of NO production by cells treated with LPS (100 ng/mL). Each value represents the mean ± SEM of four independent experiments in duplicate. Statistical analysis: one ANOVA with Dunnett’s multiple comparisons test, where p< 0.05 was considered significant. *** p < 0.005, relative to the control, and ^# p < 0.05, ^## p < 0.01, ^### p < 0.0005, and ^#### p < 0.0001, relative to LPS condition.
Background: Griess reagent forms a coloured azo dye with nitrite.

Another data set concerns HaCaT keratinocytes. Nature of the data set: Resazurin cell viability assay in HaCaT keratinocytes. The following applies: HaCaT, 24 h. It is filed as cell-based, human. The method, then:
(§1) To evaluate the effects of chalcones 1–7 on cell viability after 24 h, a resazurin assay was performed using two cell lines: human HaCaT keratinocytes (HaCaT, CLS 300493), representing the epidermal layer, and murine RAW 264.7 macrophages (RAW 264.7, ATCC TIB-71), which model immune cells involved in dermal inflammatory responses. For the keratinocyte cell line, all seven brominated and non-brominated chalcones were tested across a concentration range from 2.5 μM to 125 μM (Figure 2).
(§2) Human keratinocytes (HaCaT, CLS 300493, Eppelheim, Germany) were cultured in DMEM supplemented with heat-inactivated FBS, and a penicillin and streptomycin antibiotic solution. The cell culture of keratinocytes was washed with 6 mL of phosphate buffer solution with 0.05% EDTA (Sigma-Aldrich, St. Louis, MO, USA) and detached using 3 mL of 0.05% trypsin + 0.02% EDTA in PBS solution when the cells reached 70–80% confluence in cell culture flasks. DMEM was also used to cultivate the mouse macrophage cell line (RAW 264.7, ATCC TIB-71, Manassas, VA, USA) together with 10% (v/v) non-inactivated FBS, 1.5 g/L sodium bicarbonate, and 100 U/mL penicillin and 100 μg/mL streptomycin stock (antibiotic solution). The macrophage culture was mechanically detached using a cell scraper, and the final amount of DMEM media with the cells was sub-cultured in a 1:10 ratio to the cellular suspension.
(§3) The resazurin reduction assay was employed to evaluate the metabolic activity of human epidermal keratinocyte (HaCaT) and murine macrophage (RAW264.7) cell lines, as outlined in a previous study. In brief, HaCaT cells (1.0 × 10^5 cells/mL) and RAW264.7 cells (5.0 × 10^4 cells/mL) were seeded in 96-well plates (200 μL/well) and incubated overnight at 37 °C to allow for cell attachment. Following this, the cells were treated with different concentrations of the test compounds and kept at 37 °C for 24 h. After 20 h, resazurin (500 μM in sterile phosphate buffer solution, pH 7.4) was added to each well to achieve a final concentration of 50 μM, followed by an additional incubation of 4 h. Absorbance was then measured at wavelengths of 570 and 620 nm using a SpectraMax Plus 384 absorbance microplate spectrophotometer (Molecular Devices, San Jose, CA, USA). Each experiment was conducted in triplicate, with a minimum of three independent assays. The results were graphically presented as the percentage of cell viability versus chemical concentration, relative to the control.
(§4) Figure 2 Cytotoxicity of chalcones 1–7 using a resazurin reduction assay in HaCaT cells by comparison with the control. Bar graphs represent the mean ± SEM of at least three independent experiments performed in triplicate. Statistical analysis: one ANOVA with Dunnett’s multiple comparisons test, where p < 0.05 was considered significant when compared to the control condition. * p < 0.05, ** p < 0.01, and *** p < 0.0005.
(Resazurin is reduced to fluorescent resorufin, in cell work by metabolically active cells.)

Assay in data set [3]: as above
It counts as cell-based, human. The following applies: human, HaCaT keratinocytes, resazurin, read-out: IC50 (cell viability, cytotoxicity). The method, then:
as §1, §2, §3, §4

The next data set relates to Nrf2. Nature of the data set: KeratinoSens assay, Nrf2 luciferase reporter. It counts as cell-based, human. The following applies: 100 µM, positive control. The method, then:
The KeratinoSens™ assay was originally developed to assess the skin sensitization potential of Nrf2 activation, but it has also been utilized to evaluate the ability of natural compounds to induce this transcription factor [46, 47]. In this study, we assessed the capacity of chalcones 1 and 2 to activate Nrf2 after 24 and 48 h (Figure 8A–F).
Selected compounds (chalcones 1 and 2), and the positive control, DMF, were dissolved in sterile DMSO. Intermediate dilutions were prepared in culture medium, including the final concentration to be added to the 96-well plate, with a final volume of 200 µL per well. The KeratinoSens™ assay was conducted as previously described. In brief, cells were seeded at a density of 10,000 cells per well in 96-well white opaque plates (Greiner Bio-One GmbH, cat. no. 655083, Kremsmünster, Austria) and incubated for 24 h. The medium was then replaced with fresh medium containing 1% FBS and the test compounds, and cells were incubated for an additional 24 and 48 h. DMF was used as the positive control since it is a known Nrf2 activator. Cell viability was assessed in the same cells using resazurin. After 20 or 44 h of exposure to the test compounds, 50 µM of resazurin solution (in sterile PBS) was added to each well, and the plates were incubated for 4 h at 37 °C, 5% CO2 Following the resazurin incubation, the supernatant was transferred to a transparent 96-well plate, and absorbance was measured at 570 and 620 nm using a Synergy HT multi-mode microplate reader (BioTek, Bad Friedrichshall, Germany). To measure luciferase activity, cells in the white opaque 96-well plates were washed with 1× PBS. An equal volume of 1× PBS and lysis buffer (One-GLO Luciferase, cat. no. E6130, Promega, Madison, WI, USA) was added to the wells, and the plates were incubated for 20 min at room temperature. Luminescence was then measured using a FLUOstar OMEGA Microplate Reader (BMG Labtech GmbH, Ortenberg, Germany).
Figure 8 Nrf2 activation using the KeratinoSens™ assay in HaCaT cells transfected with an Nrf2 luciferase reporter construct, incubated for 24 h (A–C) or 48 h (D–F) with chalcones 1 and 2. DMF was used as a positive control. Data represent the results from four independent experiments. Non-linear regression analysis was performed using GraphPad Prism v.9.0.0 for Windows. The blue line represents the results of cell viability (% regarding the control) and the green line represents fold induction. Statistical analysis: one ANOVA with Dunnett’s multiple comparisons test, where significance includes. * p < 0.05, ** p < 0.01, *** p < 0.0005, and **** p < 0.0001.

Where a name gives a salt, the structure may show the parent alone.

In general, IC50 refers to the concentration that gives 50% inhibition. In the case of `COc1ccc(/C=C/C(=O)c2cc(OC)c(OC)cc2Br)cc1OC` [Chalcone 2], the iNOS expression level in data set [1] (7.5 µM, 4 h) is listed as 38.9%; in data set [1] (7.5 µM, 24 h), 20.2%; in data set [1] (15 µM, 4 h), 20.5%; in data set [1] (15 µM, 6 h), 5.7%; in data set [1] (15 µM, 24 h), 6.1%. Moreover, the “maximum iNOS suppression” value in data set [1] (7.5 µM, 24 h) is ~ 80%. Moreover, in data set [1] (15 µM, 6 h, stable up to 24 h), the iNOS suppression is listed as ~ 95%. Also, in data set [2], the half-maximal inhibitory concentration (IC50) turned out to be 0.77 ± 0.31 µM.

With `COc1ccc(/C=C/C(=O)c2ccc(OC)c(OC)c2)cc1OC` [Chalcone 3], in the data set on HaCaT keratinocytes (at 62.5 and 125 μM), the “reduction in cell viability” value is > 50%. In addition, in data set [3], the 50% inhibitory concentration (IC50) at 24 h amounted to 62.1 ± 1.07 µM. Besides, the concentration for half-maximal inhibition (IC50) in data set [2] came out at 4.73 ± 0.67 µM. Besides, the “concentration that reduced NO production to levels similar to the control” value in data set [2] (24 h) turned out to be 125 µM.

As for `COc1ccc(/C=C2\CCc3cc(OC)c(OC)cc3C2=O)cc1OC` [Chalcone 7], the “maximal reduction in viability” value in the data set on HaCaT keratinocytes (significant effects only at 62.5 μM and 125 μM) was ≤ 15%. Further, the “reduction of NO production in LPS-stimulated cells” value in data set [2] (24 h) is 12%.

For the molecule `COC(=O)/C=C/C(=O)OC` [DMF, dimethyl fumarate, reference compound], the “Nrf2 activation, fold increase” value in the data set on Nrf2 amounted to 8.36 fold.

The values above are taken from article PMC12299847, “Macroalgae-Inspired Brominated Chalcones as Cosmetic Ingredients with the Potential to Target Skin Inflammaging” (Marine Drugs, 2025).
